Tests used:
Assay in all cases: KINOMEscan
Assay type in all cases: binding
MAPKAPK5 = biological target: T1, MAPKAPK5 (Homo sapiens, UniProt Q8IW41); conditions: read-out: % control activity remaining
T1 construct: purchased Eurofins DiscoverX KINOMEscan
T1 sequence (Q8IW41 1-473): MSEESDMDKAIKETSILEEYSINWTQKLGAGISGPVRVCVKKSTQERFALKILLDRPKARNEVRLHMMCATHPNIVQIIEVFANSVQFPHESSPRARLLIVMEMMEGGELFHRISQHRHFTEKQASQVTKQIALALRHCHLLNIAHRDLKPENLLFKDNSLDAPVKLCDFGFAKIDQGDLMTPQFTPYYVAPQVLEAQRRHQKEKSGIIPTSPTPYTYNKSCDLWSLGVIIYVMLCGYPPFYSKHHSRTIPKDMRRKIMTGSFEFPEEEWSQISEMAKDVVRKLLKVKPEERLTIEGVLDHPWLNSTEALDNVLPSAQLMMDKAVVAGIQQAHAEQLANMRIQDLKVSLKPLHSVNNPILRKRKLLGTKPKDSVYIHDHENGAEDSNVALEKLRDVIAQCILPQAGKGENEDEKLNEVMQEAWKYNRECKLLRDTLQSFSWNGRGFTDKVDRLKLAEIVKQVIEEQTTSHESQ

[1] = biological target: T2, JAK1(JH1domain-catalytic) (Homo sapiens, UniProt P23458); conditions: read-out: % control activity remaining
T2 construct: JAK1(JH1domain-catalytic); purchased Eurofins DiscoverX KINOMEscan
T2 sequence (P23458 875-1154 limits assumed): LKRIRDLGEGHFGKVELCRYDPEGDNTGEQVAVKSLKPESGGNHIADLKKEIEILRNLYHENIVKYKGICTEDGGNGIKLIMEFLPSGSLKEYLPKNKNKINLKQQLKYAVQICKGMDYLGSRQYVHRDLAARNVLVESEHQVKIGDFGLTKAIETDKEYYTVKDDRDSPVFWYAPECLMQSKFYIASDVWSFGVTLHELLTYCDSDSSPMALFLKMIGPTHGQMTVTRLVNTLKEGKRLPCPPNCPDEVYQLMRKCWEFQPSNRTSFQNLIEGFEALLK

ASK1 = biological target: T3, ASK1 (Homo sapiens, UniProt Q99683); conditions: read-out: % control activity remaining
T3 construct: purchased Eurofins DiscoverX KINOMEscan
T3 sequence (Q99683 1-1374): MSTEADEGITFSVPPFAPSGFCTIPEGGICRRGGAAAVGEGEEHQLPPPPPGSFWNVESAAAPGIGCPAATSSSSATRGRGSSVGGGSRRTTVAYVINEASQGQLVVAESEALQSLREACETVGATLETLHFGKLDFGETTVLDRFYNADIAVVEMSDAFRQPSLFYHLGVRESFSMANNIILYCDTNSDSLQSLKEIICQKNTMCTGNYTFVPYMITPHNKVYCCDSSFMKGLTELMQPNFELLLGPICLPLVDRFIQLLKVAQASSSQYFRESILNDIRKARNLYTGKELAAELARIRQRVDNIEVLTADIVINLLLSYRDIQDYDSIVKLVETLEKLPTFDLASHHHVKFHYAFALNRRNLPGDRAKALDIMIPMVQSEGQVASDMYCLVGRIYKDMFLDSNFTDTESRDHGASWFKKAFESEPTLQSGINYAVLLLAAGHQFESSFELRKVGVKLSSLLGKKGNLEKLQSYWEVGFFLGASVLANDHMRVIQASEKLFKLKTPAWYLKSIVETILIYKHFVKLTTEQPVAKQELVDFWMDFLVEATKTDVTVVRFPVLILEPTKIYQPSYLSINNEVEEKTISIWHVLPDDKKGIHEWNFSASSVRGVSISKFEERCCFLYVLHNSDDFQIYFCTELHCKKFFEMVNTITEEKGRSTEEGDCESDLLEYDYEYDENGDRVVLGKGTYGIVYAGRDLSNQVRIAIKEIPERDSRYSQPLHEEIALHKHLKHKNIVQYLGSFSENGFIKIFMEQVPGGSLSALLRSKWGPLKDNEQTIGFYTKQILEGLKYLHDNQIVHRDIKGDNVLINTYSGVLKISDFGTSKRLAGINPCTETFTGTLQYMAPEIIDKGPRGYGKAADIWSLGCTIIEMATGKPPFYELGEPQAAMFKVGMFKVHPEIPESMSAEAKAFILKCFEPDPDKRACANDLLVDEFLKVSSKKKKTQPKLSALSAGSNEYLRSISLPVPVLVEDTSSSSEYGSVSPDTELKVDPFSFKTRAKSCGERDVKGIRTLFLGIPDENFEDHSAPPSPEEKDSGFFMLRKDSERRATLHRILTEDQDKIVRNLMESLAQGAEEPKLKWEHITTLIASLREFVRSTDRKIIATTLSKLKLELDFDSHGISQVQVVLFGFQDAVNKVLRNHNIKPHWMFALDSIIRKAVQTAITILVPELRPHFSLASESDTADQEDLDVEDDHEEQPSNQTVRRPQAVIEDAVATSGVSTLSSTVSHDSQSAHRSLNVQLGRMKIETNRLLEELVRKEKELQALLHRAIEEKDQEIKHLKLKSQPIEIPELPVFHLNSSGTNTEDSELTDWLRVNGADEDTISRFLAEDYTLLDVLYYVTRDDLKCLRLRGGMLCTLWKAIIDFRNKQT

LIMK2 = biological target: T4, LIMK2 (Homo sapiens, UniProt P53671); conditions: read-out: % control activity remaining
T4 construct: purchased Eurofins DiscoverX KINOMEscan
T4 sequence (P53671 whole entry): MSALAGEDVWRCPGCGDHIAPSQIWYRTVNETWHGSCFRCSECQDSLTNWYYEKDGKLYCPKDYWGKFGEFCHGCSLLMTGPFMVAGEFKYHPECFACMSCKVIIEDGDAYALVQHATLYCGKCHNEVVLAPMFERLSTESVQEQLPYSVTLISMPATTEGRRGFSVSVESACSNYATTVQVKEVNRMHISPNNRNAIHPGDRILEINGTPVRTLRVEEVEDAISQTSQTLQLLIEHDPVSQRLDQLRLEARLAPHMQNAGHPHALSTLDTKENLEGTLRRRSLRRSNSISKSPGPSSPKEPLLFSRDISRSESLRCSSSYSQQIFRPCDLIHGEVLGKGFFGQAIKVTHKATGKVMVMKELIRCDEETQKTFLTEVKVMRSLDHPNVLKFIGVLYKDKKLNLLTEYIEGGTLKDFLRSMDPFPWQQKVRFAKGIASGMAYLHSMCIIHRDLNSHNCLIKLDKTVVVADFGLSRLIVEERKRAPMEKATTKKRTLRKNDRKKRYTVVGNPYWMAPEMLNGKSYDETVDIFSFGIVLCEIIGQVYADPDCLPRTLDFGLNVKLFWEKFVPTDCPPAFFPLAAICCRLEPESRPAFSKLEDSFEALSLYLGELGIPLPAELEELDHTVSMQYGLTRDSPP

MLCK = biological target: T5, MLCK (Homo sapiens, UniProt Q32MK0); conditions: for remaining binding at 1 µM: read-out: % control activity remaining
T5 construct: purchased Eurofins DiscoverX KINOMEscan
T5 sequence (Q32MK0 1-819): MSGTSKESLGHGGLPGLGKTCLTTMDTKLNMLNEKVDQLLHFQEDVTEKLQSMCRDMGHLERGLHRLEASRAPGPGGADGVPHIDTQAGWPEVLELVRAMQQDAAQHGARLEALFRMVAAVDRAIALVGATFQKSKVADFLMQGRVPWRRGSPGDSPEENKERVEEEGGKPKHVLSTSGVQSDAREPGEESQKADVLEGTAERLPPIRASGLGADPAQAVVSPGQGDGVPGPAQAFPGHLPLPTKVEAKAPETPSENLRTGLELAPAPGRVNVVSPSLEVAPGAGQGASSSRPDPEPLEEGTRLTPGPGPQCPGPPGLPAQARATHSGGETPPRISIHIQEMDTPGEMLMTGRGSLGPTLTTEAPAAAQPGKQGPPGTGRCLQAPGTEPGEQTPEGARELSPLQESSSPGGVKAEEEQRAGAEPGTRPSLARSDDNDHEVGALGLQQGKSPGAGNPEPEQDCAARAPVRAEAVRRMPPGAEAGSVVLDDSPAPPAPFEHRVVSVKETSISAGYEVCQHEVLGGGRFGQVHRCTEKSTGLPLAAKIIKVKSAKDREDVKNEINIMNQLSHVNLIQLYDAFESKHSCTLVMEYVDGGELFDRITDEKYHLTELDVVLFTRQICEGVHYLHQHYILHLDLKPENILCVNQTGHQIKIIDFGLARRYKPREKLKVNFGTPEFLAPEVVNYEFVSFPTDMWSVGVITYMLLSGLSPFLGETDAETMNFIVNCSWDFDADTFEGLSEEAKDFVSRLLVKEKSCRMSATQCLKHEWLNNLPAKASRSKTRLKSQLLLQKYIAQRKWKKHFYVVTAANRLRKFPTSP

DAPK1 = biological target: T6, DAPK1 (Homo sapiens, UniProt P53355); conditions: read-out: % control activity remaining
T6 construct: purchased Eurofins DiscoverX KINOMEscan
T6 sequence (P53355 whole entry): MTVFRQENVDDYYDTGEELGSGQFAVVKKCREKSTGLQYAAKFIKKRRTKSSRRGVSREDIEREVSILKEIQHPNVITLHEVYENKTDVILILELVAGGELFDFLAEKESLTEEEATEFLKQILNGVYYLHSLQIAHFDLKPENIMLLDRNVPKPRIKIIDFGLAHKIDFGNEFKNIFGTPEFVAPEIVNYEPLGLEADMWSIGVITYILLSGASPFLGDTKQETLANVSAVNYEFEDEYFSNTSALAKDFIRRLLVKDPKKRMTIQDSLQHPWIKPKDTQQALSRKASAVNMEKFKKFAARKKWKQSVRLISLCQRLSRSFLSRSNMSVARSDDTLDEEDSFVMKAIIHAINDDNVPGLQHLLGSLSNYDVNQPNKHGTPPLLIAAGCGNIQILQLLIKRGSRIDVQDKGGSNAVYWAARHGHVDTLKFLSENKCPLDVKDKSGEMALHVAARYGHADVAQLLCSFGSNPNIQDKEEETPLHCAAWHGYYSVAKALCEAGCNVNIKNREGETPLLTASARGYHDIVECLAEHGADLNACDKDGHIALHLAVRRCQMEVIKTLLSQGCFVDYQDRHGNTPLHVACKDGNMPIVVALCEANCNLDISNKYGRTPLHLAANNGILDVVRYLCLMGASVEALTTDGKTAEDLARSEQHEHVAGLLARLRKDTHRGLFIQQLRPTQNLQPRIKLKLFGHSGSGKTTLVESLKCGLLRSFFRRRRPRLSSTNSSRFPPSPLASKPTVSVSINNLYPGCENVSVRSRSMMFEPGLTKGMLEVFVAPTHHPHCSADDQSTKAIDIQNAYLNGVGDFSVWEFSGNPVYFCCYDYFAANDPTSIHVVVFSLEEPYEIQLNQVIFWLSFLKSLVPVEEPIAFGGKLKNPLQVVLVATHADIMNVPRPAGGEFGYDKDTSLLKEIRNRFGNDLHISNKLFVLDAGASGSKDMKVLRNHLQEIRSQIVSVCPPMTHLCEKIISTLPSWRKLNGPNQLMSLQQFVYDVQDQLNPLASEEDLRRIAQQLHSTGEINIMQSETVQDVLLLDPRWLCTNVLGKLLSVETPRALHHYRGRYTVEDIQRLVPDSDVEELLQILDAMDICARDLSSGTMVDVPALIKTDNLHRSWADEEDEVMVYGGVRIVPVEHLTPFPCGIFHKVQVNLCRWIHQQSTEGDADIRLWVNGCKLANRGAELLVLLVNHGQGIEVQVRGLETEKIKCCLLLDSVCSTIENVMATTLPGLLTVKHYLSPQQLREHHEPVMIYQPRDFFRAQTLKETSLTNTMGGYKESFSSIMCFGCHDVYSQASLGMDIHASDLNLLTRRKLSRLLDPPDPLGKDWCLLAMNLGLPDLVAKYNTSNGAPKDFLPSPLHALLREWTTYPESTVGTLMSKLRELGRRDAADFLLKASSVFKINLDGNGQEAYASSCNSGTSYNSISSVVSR

Question: Clc1cc(NCC2CC2)c2ncc(-c3ccc4[nH]ncc4c3)n2n1 [compound 2, 6-Chloro-N-(cyclopropylmethyl)-3-(1H-indazol-5-yl)imidazo[1,2-b]pyridazin-8-amine] was tested. Which remaining binding at 1 µM (MAPKAPK5) did it give?
Answer: The remaining binding at 1 µM was 91%.

Question: What about the remaining binding at 1 µM [1] of the same compound?
Answer: The remaining binding at 1 µM was 100%.

Question: What about the remaining binding at 1 µM (ASK1) of the same compound?
Answer: The remaining binding at 1 µM was 70%.

Question: And the remaining binding at 1 µM (LIMK2)?
Answer: Its remaining binding at 1 µM is 94%.

Question: What about the remaining binding at 1 µM (MLCK) of the same compound?
Answer: Its remaining binding at 1 µM is 80%.

Question: And the remaining binding at 1 µM (DAPK1)?
Answer: The remaining binding at 1 µM was 98%.

Question: What does the source list for O=C(CN1CCOCC1)N[C@H]1CC[C@H](Nc2cc(Cl)nn3c(-c4ccc5[nH]ncc5c4)cnc23)CC1 [compound 26]?
Answer: remaining binding at 1 µM (MAPKAPK5): 98%; remaining binding at 1 µM [1]: 100%; remaining binding at 1 µM (ASK1): 100%; remaining binding at 1 µM (LIMK2): 85%; remaining binding at 1 µM (MLCK): 6.6%; inhibition at 1 µM (MLCK; read-out: Probe binding inhibited): > 90%; remaining binding at 1 µM (DAPK1): 66%

Question: For CN1CCC(CNc2cc(Cl)nn3c(-c4cc5nc(Nc6ccccc6)[nH]c5cc4F)cnc23)CC1 [compound 31, 6-Chloro-3-(6-fluoro-2-(phenylamino)-1H-benzo[d]imidazol-5-yl)-N-((1-methylpiperidin-4-yl)methyl)imidazo[1,2-b]pyridazin-8-amine], which remaining binding at 1 µM (MAPKAPK5) is on record?
Answer: Its remaining binding at 1 µM is 82%.

Question: What about the remaining binding at 1 µM [1] of the same compound?
Answer: Its remaining binding at 1 µM is 100%.

Question: What about the remaining binding at 1 µM (ASK1) of the same compound?
Answer: Its remaining binding at 1 µM is 100%.

Question: What about the remaining binding at 1 µM (LIMK2) of the same compound?
Answer: Its remaining binding at 1 µM is 100%.

Question: What about the remaining binding at 1 µM (MLCK) of the same compound?
Answer: Its remaining binding at 1 µM is 89%.

Question: What about the remaining binding at 1 µM (DAPK1) of the same compound?
Answer: The remaining binding at 1 µM was 99%.

Source: article PMC6437697 (Journal of Medicinal Chemistry, 2019)
